Experimental data taken from patent US6635771B2, “N-benzhydryl indole compounds” (Wyeth, priority 2001, dated 2003).

target: T1, cPLA2 (Homo sapiens, UniProt P47712); assay: Coumarine Assay; assay type: biochemical; settings: 60 μM 7-hydroxycoumarinyl 6-heptenoate substrate, 4 μg cPLA2, pH 7.5, fluorescence ex 360 nm / em 460 nm; read-out: Coumarin IC50
T1 sequence (P47712 1-749): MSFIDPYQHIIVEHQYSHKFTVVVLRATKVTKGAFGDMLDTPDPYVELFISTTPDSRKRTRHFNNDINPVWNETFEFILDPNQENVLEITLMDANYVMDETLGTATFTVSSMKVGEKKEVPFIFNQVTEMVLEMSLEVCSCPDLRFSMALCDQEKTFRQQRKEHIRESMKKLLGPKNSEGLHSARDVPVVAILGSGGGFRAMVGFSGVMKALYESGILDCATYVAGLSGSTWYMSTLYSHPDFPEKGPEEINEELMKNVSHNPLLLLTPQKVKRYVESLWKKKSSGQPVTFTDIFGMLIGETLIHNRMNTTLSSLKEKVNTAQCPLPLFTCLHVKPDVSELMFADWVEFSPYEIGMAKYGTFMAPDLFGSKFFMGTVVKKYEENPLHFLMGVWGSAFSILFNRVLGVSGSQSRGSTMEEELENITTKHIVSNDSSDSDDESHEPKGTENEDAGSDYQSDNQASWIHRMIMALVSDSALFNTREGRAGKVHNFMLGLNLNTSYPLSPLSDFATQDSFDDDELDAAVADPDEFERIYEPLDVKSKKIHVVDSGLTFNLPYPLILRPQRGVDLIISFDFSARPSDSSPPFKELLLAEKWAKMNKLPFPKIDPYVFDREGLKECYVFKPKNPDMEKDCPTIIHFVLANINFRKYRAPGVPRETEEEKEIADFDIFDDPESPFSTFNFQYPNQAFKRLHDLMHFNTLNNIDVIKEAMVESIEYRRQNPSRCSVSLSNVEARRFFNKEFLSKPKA
Method: Inhibitors were mixed with 200 μL assay buffer (80 mM Heped, pH 7.5, 1 mM EDTA) containing 60 μM 7-hydroxycoumarinyl 6-heptenoate. The reaction was initiated by adding 4 μg cPLA2 in 50 μL assay buffer. Hydrolysis of the 7-hydroxycounarimyl 6-heptenoate ester was monitored in a fluorometer by exciting at 360 nm and monitoring emission at 460 nm. Enzyme activity is proportional to the increase in emission at 460 nm per minute. In the presence of a cPLA2 inhibitor, the rate of increase is less.

Row | SMILES | IC50
1 | O=C(O)c1ccc(OCCc2c(CCNS(=O)(=O)Cc3cccnc3)n(C(c3ccccc3)c3ccccc3)c3ccc(Cl)cc23)cc1 [Example 49] | 1100 nM
2 | CC1CCCC(C)N1CCS(=O)(=O)NCCc1c(CCCc2ccc(C(=O)O)cc2)c2cc(Cl)ccc2n1C(c1ccccc1)c1ccccc1 (stereo not shown) [Example 101, 4-[3-(1-Benzhydryl-5-chloro-2-{2-[2-(2,6-dimethyl-piperidin-1-yl)-ethanesulfonylamino]-ethyl}-1H-indol-3-yl)-propyl]-benzoic acid] | 100 nM
3 | O=C(O)c1ccc(CCCc2c(CCNS(=O)(=O)Cc3ccncc3)n(C(c3ccccc3)c3ccccc3)c3ccc(Cl)cc23)cc1 [Example 63, 4-{3-[1-benzhydryl-5-chloro-2-(2-{[(4-pyridinylmethyl)sulfonyl]amino}ethyl)-1H-indol-3-yl]propyl}benzoic acid] | 300 nM
4 | O=C(O)c1ccc(OCCc2c(CCNS(=O)(=O)Cc3cccc(Cl)c3Cl)n(C(c3ccccc3)c3ccccc3)c3ccc(Cl)cc23)cc1 [Example 29, 4-{2-[1-benzhydryl-5-chloro-2-(2-{[(2,3-dichlorobenzyl)sulfonyl]amino}ethyl)-1H indol-3-yl]ethoxy}benzoic acid] | 190 nM
5 | O=C(O)c1ccc(CCCc2c(CCNS(=O)(=O)Cc3ccccn3)n(C(c3ccccc3)c3ccccc3)c3ccc(Cl)cc23)cc1 [Example 61, 4-{3-[1-benzhydryl-5-chloro-2-(2-{[(2-pyridinylmethyl)sulfonyl]amino}ethyl)-1H-indol-3-yl]propyl}benzoic acid] | 340 nM
6 | Cn1cnc(S(=O)(=O)NCCc2c(CCOc3ccc(C(=O)O)cc3)c3cc(Cl)ccc3n2C(c2ccccc2)c2ccccc2)c1 [Example 4, 4-{2-[1-Benzhydryl-5-chloro-2-(2{[(1-methyl-1H-imidazol-4-yl)sulfonyl]amino}ethyl)-1H-indol-3-yl]ethoxy}benzoic acid] | 56000 nM
7 | CCN(CC)S(=O)(=O)c1ccc(CS(=O)(=O)NCCc2c(CCOc3ccc(C(=O)O)cc3)c3cc(Cl)ccc3n2C(c2ccccc2)c2ccccc2)cc1 [Example 41, 4-(2-{1-Benzhydryl-5-chloro-2-[2-(4-diethylsulfamoyl-phenylmethanesulfonylamino) -ethyl]-1H-indol-3-yl}-ethoxy)-benzoic acid] | 200 nM
8 | O=C(O)c1ccc(OCCc2c(CCNS(=O)(=O)CCN3CCC(O)C3)n(C(c3ccccc3)c3ccccc3)c3ccc(Cl)cc23)cc1 (stereo not shown) [Example 122, 4-[2-(1-benzhydryl-5-chloro-2-{2-[2-(3-hydroxy-pyrrolidine-1-yl)-ethanesulfonylamino]-ethyl}-1H-indol-3-yl)-ethoxy]-benzoic acid] | 2500 nM
9 | O=C(O)c1ccc(OCCc2c(CCNS(=O)(=O)Cc3ccc(S(=O)(=O)N4CCCCC4)cc3)n(C(c3ccccc3)c3ccccc3)c3ccc(Cl)cc23)cc1 [Example 38, 4-(2-{1-Benzhydryl-5-chloro-2-[2-({[4-(1piperidinylsulfonyl)benzyl]sulfonyl}amino)ethyl]-1H-indol-3-yl}ethoxy)benzoic acid] | 500 nM
10 | Cc1cnn(CCS(=O)(=O)NCCc2c(CCOc3ccc(C(=O)O)cc3)c3cc(Cl)ccc3n2C(c2ccccc2)c2ccccc2)c1 [Example 95, 4-(2-{1-benzhydryl-5-chloro-2-[2-({[2-(4-methyl-1H-pyrazol-1-yl)ethyl]sulfonyl}amino)ethyl]-1H-indol-3-yl}ethoxy)benzoic acid] | 850 nM
11 | O=C(O)c1ccc(OCCc2c(CCNS(=O)(=O)CCN3CCOCC3)n(C(c3ccccc3)c3ccccc3)c3ccc(Cl)cc23)cc1 [Example 87, 4-(2-{1-Benzhydryl-5-chloro-2-[2-(2-morpholin-4-ylethanesulfonylamino)-ethyl]-1H-indol-3-yl}-ethoxy)-benzoic acid] | 1200 nM
12 | O=C(O)c1ccc(OCCc2c(CCNS(=O)(=O)c3ccccc3C(=O)O)n(C(c3ccccc3)c3ccccc3)c3ccc(Cl)cc23)cc1 [Example 25, 2-{[(2-{1-benzhydryl-3-[2-(4-carboxyphenoxy)ethyl]-5-chloro-1H-indol-2-yl}ethyl)amino]sulfonyl}benzoic acid] | 3400 nM
13 | COc1ccccc1SCS(=O)(=O)NCCc1c(CCOc2ccc(C(=O)O)cc2)c2cc(Cl)ccc2n1C(c1ccccc1)c1ccccc1 [Example 83] | 450 nM
14 | O=C(O)c1ccc(CNCc2c(CCNS(=O)(=O)Cc3ccccc3)n(C(c3ccccc3)c3ccccc3)c3ccc(Cl)cc23)cc1 [Example 134, 4-({[(1-benzhydryl-2-{2-[(benzylsulfonyl)amino]ethyl}-5-chloro-1H-indol-3-yl)methyl]amino}methyl)benzoic acid] | > 1000 nM
15 | O=C(O)c1ccc(CCCc2c(CCNS(=O)(=O)Cc3ccccc3)n(C(c3ccccc3)c3ccccc3)c3ccc(Cl)cc23)cc1 [Example 42, 4-{3-[1-Benzhydryl-5-chloro-2-(2-phenylmethanesulfonylamino-ethyl)-1H-indol-3-yl]-propyl)-benzoic acid] | 180 nM
16 | O=C(O)c1ccc(OCCc2c(CCNS(=O)(=O)Cc3cccc([N+](=O)[O-])c3)n(C(c3ccccc3)c3ccccc3)c3ccc(Cl)cc23)cc1 [Example 55, 4-{2-[1-benzhydryl-5-chloro-2-(2-{[(3-nitrobenzyl)sulfonyl]amino}ethyl)-1H-indol-3-yl]ethoxy}benzoic acid] | 260 nM
